Data reported in patent US5395842A, “Anti-estrogenic compounds and compositions” (Endorecherche Inc., priority 1991, dated 1995).
pIC50: −log10 of the molar value. Values belong to the compound of their own block, whether it stands above or below them.

Assays:
[1] = system: rat uterine cytosol estrogen receptor; experiment: competition binding on the rat uterine cytosol estrogen receptor with [3H] estradiol; conditions: 25° C., FIG. 1
Method: J. Endocrinol. 112: R7-R110) and EM-142 (an antiestrogen having a nonsteroidal nucleus and synthesized in example 1, herein) for the rat uterine cytosol receptor ([…] et al., 1978; J. Steroid Biochem. 9: 1079-1082). EM-142 from example 1 was tested by competition binding on the rat uterine cytosol estrogen receptor with [^3 H] estradiol according to […] et al. (1976) prodecure. […] (incubation was performed at 25° C. for 3 hours).

[2] = system: uterine weight in adult female ovariectomized Balb/c mice; experiment: inhibition of the estradiol-induced stimulation of uterine weight in adult female ovariectomized Balb/c mice; assay type: in vivo
Method: (§1) EM-142, and/or estradiol contained in ethanol were injected subcutaneously in the appropriate groups in a solution of 0.9% (w/v) sodium chloride and 1% (w/v) gelatin at different concentrations in 0.2 ml for EM-142, twice daily, starting on the day of ovariectomy for a total of 9 injections. Estradiol was injected at the dose of 0.01 μg in 0.2 ml, twice daily, starting on the morning after ovariectomy for a total of 8 injections.
After sacrifice, the uteri were rapidly removed, freed from fat and connective tissue and weighted. Results shown in FIG. 2 are the means±SEM of groups of 9-10 mice.
as §1, with “"EM 139", and/or” for “EM-142, and/or”, “estradiol dissolved” for “estradiol contained”, “concentrations of "EM 139" (as noted along the X axis of FIG. 3). A dosage of” for “concentrations in”, “ml of the foregoing preparation, was administered” for “ml for EM-142,”
After sacrifice, the uteri were rapidly removed, freed from fat and connective tissue and weighed. Results shown in FIG. 3 are the means±SEM of groups of 9-10 mice.

advanced breast cancer = conditions: H. Mouridsen et al., 1978; cited from earlier work
[3] = system: ZR-75-1 human breast cancer cell line; experiment: growth of ZR-75-1 human breast cancer cells; assay type: cell-based; conditions: for pIC50: Homo sapiens, 240 h, 10 days, read-out: half-maximal effectiveness / IC50 on growth of ZR-75-1 cells
Method: ZR-75-1 cells (83rd passage) were obtained from the American Type Culture Collection (Rockville, Md.) and routinely cultured in phenol-red free RPMI 1640 supplemented with 1 nM E2, 2 mM L-glutamine, 1 mM sodium pyruvate, 15 mM N-2-hydroxyethyl-piperazine-N'-2-ethanesulfonic acid, 100 IU penicillin/ml, 100 μg streptomycin/ml, and 10% (v/v) fetal bovine serum (Hyclone, Logan, UT) under a humidified atmosphere of 95% air, 5% CO2, at 37° C. All media and medium supplements were purchased from Sigma. Cells were subcultured weekly by treatment with a pancreatic solution containing 0.02% EDTA (w/v). The cell cultures used for the experiments herein described were between passages 89 and 94.
Cells in their logarithmic growth phase were harvested, briefly centrifuged, and resuspended in RPMI 1640. Cells were then plated in triplicate in LIMBRO 24-well plastic culture plates (2 cm^2 /well). Since plating density influences the effect of hormones on ZR-75-1 cell growth, cells were plated at a density of 1×10^4 cells/well. After 72 h, medium was replaced with fresh medium of identical composition containing, in addition, the concentrations of steroids and/or inhibitors (e.g. EM 312 or EM 343) indicated along the X-axis of FIG. 5. Control cultures received the ethanol vehicle only. Cells were then allowed to grow at 37° C. for 10 days with medium changes (of identical composition) every 2 days. In absence of inhibitors, in 0.1 nM estradiol (E2)-containing medium, ZR-75-1 cells have doubling time of about 48 h.
After E2 and/or antiestrogen treatment, cells were harvested by addition of 0.5 ml of a pancreatin solution (Sigma) for 5-10 min at 37° C. before addition of 0.5 ml of RPMI 1640 containing 5% dextran-coated charcoal-fetal bovine serum in order to block enzymatic action. Cell number (0.10-ml aliquot) was determined by measurement of DNA content as previously described (Simard et al., Endocrinology 126: 3223-3231, 1990).

[4] = system: 17β-hydroxysteroid dehydrogenase; conditions: Thomas et al., 1983; cited from earlier work
[5] = reported by Saeed et al. and Sharma et al., 1990; cited from earlier work
[6] = system: 17β-hydroxysteroid dehydrogenase (17β-HSD); experiment: inhibition of 17β-HSD catalyzed conversion of estradiol to estrone (NADH formation at 340 nm); assay type: biochemical, human; conditions: increasing concentrations; 1 μg 17β-HSD, 5 mM NAD, 20 μM 17β-estradiol, pH 7.5, 25° C., 15 min; FIG. 4
Description: To test the effect of "EM 139" on the inhibition of sex steroid formation, its effect on the 17β-hydroxysteroid dehydrogenase catalyzed conversion of estradiol to estrone was observed. The reaction was followed by monitoring formation of NADH (at 340 nm). The rate of conversion of cofactor NAD to NADH varies directly with the rate of estradiol conversion to estrone. The ability of "EM 139" to inhibit estrone production is indicative of its ability to inhibit the estrogen-forming reverse reaction because both reactions are catalyzed by 17β-hydroxysteroid dehydrogenase (Thomas et al., J. Biol. Chem. 258: 11500-11504, 1983). 17β-hydroxysteroid dehydrogenase (17β-HSD) was purified to homogeneity from human placenta. A reaction vessel was prepared containing 1 μg 17β-HSD, 5 mM NAD, 20 μM 17β-estradiol, and the concentrations of the test compound "EM 139" which are indicated along the X-axis of FIG. 4 in 1.0 ml of a mixture of Tris-HCl (50 mM), EDTA (2 mM), NaN3 (5 mM). The pH was 7.5. The reaction was allowed to proceed at 25° C. for 15 min. Formation of NADH was measured at 340 nm.

binding potency compared with the antiestrogen ICI 164384 (in words) [1]: more potent
times less potent than 17β-estradiol [1]: 3 times
SMILES: CCCCN(C)C(=O)CCCCCCCCCCC(=C(CC)c1ccc(O)cc1)c1ccc(O)cc1 [EM 142, N-butyl, N-methyl-12,13-Bis(4-hydroxyphenyl)-12-pentadecenoic amide]
inhibitory effect on E2-induced uterine growth (in words) ([2]; 0.3 μg, s.c., twice daily, estradiol 0.01 μg, FIG. 2): significant inhibitory effect
reversal of estrogenic action on uterine weight (in words) ([2]; 20 μg, s.c., twice daily, estradiol 0.01 μg, FIG. 2): complete reversal of estrogenic action
estrogenic effect on uterine weight (in words) ([2]; EM-142, agonism on uterine weight): no estrogenic effect on uterine weight

SMILES: CC/C(=C(\c1ccccc1)c1ccc(OCCN(C)C)cc1)c1ccccc1 [Tamoxifen]
women patients with remission of advanced breast cancer (advanced breast cancer): about 30%

pIC50 ([3]; ZR-75-1 cells, FIG. 5): 9.59
SMILES: CC1=C(c2ccc(O)cc2)C(c2ccc(OCCN3CCCCC3)cc2)Oc2cc(O)ccc21 (stereo not shown) [EM 343]
cell growth inhibition (in words) ([3]; ZR-75-1 cells, low concentration, FIG. 5): extensive cell growth inhibition

SMILES: C=C1C[C@H]2[C@@H]3CCc4cc(O)ccc4[C@H]3CC[C@]2(C)C1=O [16-methylene estrone]
inhibition of 17β-hydroxysteroid dehydrogenase activity (in words) [4]: inhibitors of 17β-hydroxysteroid dehydrogenase activity

pIC50 ([3]; ZR-75-1 cells, FIG. 5): 9.07
fold by which IC50 is higher than that of EM 343 ([3]; ZR-75-1 cells, relative to EM 343, FIG. 5): 3 -fold
SMILES: Oc1ccc(C2=Cc3ccc(O)cc3OC2c2ccc(OCCN3CCCCC3)cc2)cc1 (stereo not shown) [EM 312]
comparative effect on growth of ZR-75-1 cells vs EM 343 (in words) ([3]; comparative testing in the applicant's laboratory): underperformed EM 343
antiestrogenic activity (in words) [5]: antiestrogenic activity

SMILES: C=C1C[C@H]2[C@@H]3CCc4cc(O)ccc4[C@H]3CC[C@]2(C)[C@H]1O [16-methylene estradiol]
inhibition of 17β-hydroxysteroid dehydrogenase activity (in words) [4]: inhibitors of 17β-hydroxysteroid dehydrogenase activity

SMILES: CCCCN(C)C(=O)CCCCCCCCCC[C@@H]1Cc2cc(O)ccc2[C@H]2CC[C@]3(C)[C@@H](O)[C@H](Cl)C[C@H]3[C@H]12 [EM 139, N-n-butyl-N-methyl-11-(16'α-chloro-3',17'β-dihydroxy-estra-1',3',5'(10') -trien-7' α-yl) undecanamide]
reduction of estradiol-induced uterine weight gain (in words) ([2]; s.c., twice daily, 9 injections, FIG. 3): highly effective in reducing estradiol-induced uterine weight gain
inhibition of 17β-HSD reaction (in words) [6]: significantly inhibited the reaction
